Results from patent US20170202840A1, “TREATMENT OF PANCREATIC CANCER WITH LIPOSOMAL IRINOTECAN” (MERRIMACK PHARMACEUTICALS, INC., priority 2016, published 2017).
Counter-ions that a name gives are not always drawn. Like-named read-outs stand apart in the source and are kept apart here.

Experiments:
[1] = rat, in vivo; cited from earlier work
[2] = intravenous; cited from earlier work
[3] = human, in vivo; cited from earlier work
[4] = rats, cited from earlier work
[5] = intravenous; cited from earlier work; remark: listed apart in the source
[6] = mouse; cited from earlier work
[7] = rabbits, 6 mg/kg/day; cited from earlier work
[8] = test system: cytochrome P-450 isozymes; details: in vitro; cited from earlier work
[9] = cited from earlier work
[10] = in vivo
Text: Serum bilirubin within the institutional normal range, albumin≧3 g/dL, and Karnofsky Performance Status (KPS)≧70 were required for study entry.
TEAEs were graded by NCI CTCAE v4.0 and coded by MedDRA v14.1 for the following prespecified subgroups: sex, age (<65 vs ≧65 years), ethnicity (white vs Asian), UGT1A1*28 status, prior conventional irinotecan therapy (yes vs no), and prior 5-FU therapy (yes vs no). All TEAEs were followed until resolution or patient discontinuation. Analyses were performed on the safety population (ie, those who received≧1 dose of study medication).
All TEAEs were followed until resolution or patient discontinuation. The safety analysis population included all patients who received≧1 dose of study drug. The presence of the UGT1A1*28 allele was determined by genotype testing, and homozygous patients were identified (A7/TA7 genotype)

[11] = dog, in vivo

For `CCc1c2c(nc3ccc(OC(=O)N4CCC(N5CCCCC5)CC4)cc13)-c1cc3c(c(=O)n1C2)COC(=O)[C@]3(O)CC` [irinotecan HCl, (5) 4,11-diethyl-3,4,12,14-tetrahydro-4-hydroxy-3,14-dioxo1H-pyrano[3′,4′:6,7]-indolizino[1,2 b]quinolin-9-yl-[1,4′bipiperidine]-1′-carboxylate, monohydrochloride, trihydrate], the Carcinogenicity finding [1] is listed as “significant linear trend between irinotecan HCl dosage and the incidence of combined uterine horn endometrial stromal polyps and endometrial stromal sarcomas”, the “Time to appearance of radioactivity in milk” value [2] is listed as at most 5 min and the “Effect of dexamethasone (moderate CYP3A4 inducer) on pharmacokinetics of irinotecan” value [3] is listed as “does not alter the pharmacokinetics of irinotecan”. The “Exposure to irinotecan and SN-38 with concomitant ketoconazole” value [3] was “increased exposure”, the “Exposure to irinotecan or SN-38 with CYP3A4 enzyme-inducing anticonvulsants or St. John's wort” value [3] was “substantially reduced” and the “Urinary excretion of SN-38” value [3] was under 1%. The “Urinary excretion of SN-38 glucuronide” value [3] was 3%, the “Effects in offspring, dams dosed after organogenesis through weaning” value ([4]; 6 mg/kg/day) was “decreased learning ability and decreased female body weights in the offspring” and the “Doses giving structural abnormalities and growth delays” value [4] was “greater than 1.2 mg/kg/day”. For the same compound, the “Doses without significant adverse effects on fertility and general reproductive performance” value [5] was “up to 6 mg/kg/day” and the Clastogenicity in vivo [6] was “clastogenic”.

For `CCc1c2c(nc3ccc(OC(=O)N4CCC(N5CCCCC5)CC4)cc13)-c1cc3c(c(=O)n1C2)COC(=O)[C@]3(O)CC` [irinotecan, (5) 4,11-diethyl-3,4,12,14-tetrahydro-4-hydroxy-3,14-dioxo1H-pyrano[3′,4′: 6,7]-indolizino[1,2b]quinolin-9-yl-[1,4′bipiperidine]-1′-carboxylate], the “Embryo-fetal effects, intravenous during organogenesis” value [7] is given as “increased post-implantation loss and decreased numbers of live fetuses”, the “Embryo-fetal effects, intravenous during organogenesis” value ([4]; 6 mg/kg/day) is given as “increased post-implantation loss and decreased numbers of live fetuses” and the Placental transfer ([4]; intravenous) is given as “crosses the placenta”. The “Inhibition of cytochrome P-450 isozymes” value [8] was “do not inhibit cytochrome P-450 isozymes”, the “Incidence of grade 4 neutropenia” value ([9]; 350 mg/m2 once every-3-weeks, homozygous UGT1A1*28) was at most 50% and the “Incidence of grade 4 neutropenia” value ([9]; heterozygous (UGT1A1 6/7 genotype)) was 12.5%. For the same compound, the “Incidence of grade 4 neutropenia” value ([9]; homozygous wild-type (UGT1A1 6/6 genotype)) was “no grade 4 neutropenia was observed”.

In the case of “irinotecan sucrose octasulfate salt liposome injection [MM-398]”, the “Incidence of neutropenic sepsis” value [10] is reported as 0.8% and the “Doses with atrophy of male and female reproductive organs” value [11] is reported as at least 13 mg/kg.

In the case of `CCc1c2c(nc3ccc(O)cc13)-c1cc3c(c(=O)n1C2)COC(=O)[C@]3(O)CC` [SN-38], the “Inhibition of cytochrome P-450 isozymes” value [8] is listed as “do not inhibit cytochrome P-450 isozymes”.
